Laboratory results from article PMC10926604, “Discovery of a novel small molecule as CD47/SIRPα and PD-1/PD-L1 dual inhibitor for cancer immunotherapy” (Cell Communication and Signaling : CCS, 2024).
“Also recorded” adds a separate entry of the source.

Key:
MC38 tumor-bearing mice [1] = assay: MC38 tumor model; type: in vivo, mouse; conditions: 2 or 6 mg/kg i.p. daily for 14 days
Experimental: The animal studies were conducted in accordance with the guidelines and approved by the Ethics Committee of Zhengzhou University (ZZUIRB 2021–36). Six weeks old female mice were purchased from the Vital River Laboratory (Beijing, China). Mouse MC38 colorectal cancer cells (1 × 10^6) were harvested and subcutaneously (s.c.) injected into the right abdomen of the mice. When the tumor size reached 40 ~ 80 mm^3, the mice were randomly assigned into three groups (n = 5 per group) to receive intraperitoneal injections daily of SMC18 (2 mg/kg), SMC18 (6 mg/kg) or normal saline for 14 days. At day 23, mice were euthanized for ex vivo analysis.

murine PD-L1 (mPD-L1) = molecular target: T1, murine PD-L1 (mPD-L1) (Mus musculus, UniProt Q9EP73); assay: MST binding assay, murine PD-L1; conditions: PD-L1-IgV-His, read-out: dissociation constant (KD) for murine PD-L1
T1 construct: PD-L1-IgV-His (human: 10,084-H08H, mouse: 50,010-M08H, Sino Biological); His; purchased Sino Biological 50,010-M08H
T1 sequence (Q9EP73 19-127 limits assumed): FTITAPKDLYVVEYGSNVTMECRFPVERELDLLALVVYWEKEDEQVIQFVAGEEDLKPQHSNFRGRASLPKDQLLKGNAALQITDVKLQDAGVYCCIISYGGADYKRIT
Experimental: (§1) SIPRα-IgV-His (human: SIA-H5225, mouse: SIA-M52H4, ACRO Biosystems) and PD-L1-IgV-His (human: 10,084-H08H, mouse: 50,010-M08H, Sino Biological) proteins were labeled with Red-NHS647 dye (NT-MO-L001, NanoTemper) for subsequent experiments. SMC18 (C385-0664, ChemDiv) was serially diluted using PBST (from 0.0191 μM to 200 μM) and mixed with the labeled proteins. The samples were then aspirated using standard capillaries and assayed by MST instrument (Monolith NT.115, NanoTemper), and the results were analyzed using the analytical software Monolith NT.115 system to calculate the dissociation constant (KD) values.

hLAG-3/hFGL-1 = hLAG-3/hFGL-1 (Homo sapiens, UniProt P18627+Q08830); assay: Blockade of other immune checkpoint pathways, LAG-3/FGL-1; type: cell-based; conditions: Fig. S2
hLAG-3/hFGL-1, sequence (P18627 23-525): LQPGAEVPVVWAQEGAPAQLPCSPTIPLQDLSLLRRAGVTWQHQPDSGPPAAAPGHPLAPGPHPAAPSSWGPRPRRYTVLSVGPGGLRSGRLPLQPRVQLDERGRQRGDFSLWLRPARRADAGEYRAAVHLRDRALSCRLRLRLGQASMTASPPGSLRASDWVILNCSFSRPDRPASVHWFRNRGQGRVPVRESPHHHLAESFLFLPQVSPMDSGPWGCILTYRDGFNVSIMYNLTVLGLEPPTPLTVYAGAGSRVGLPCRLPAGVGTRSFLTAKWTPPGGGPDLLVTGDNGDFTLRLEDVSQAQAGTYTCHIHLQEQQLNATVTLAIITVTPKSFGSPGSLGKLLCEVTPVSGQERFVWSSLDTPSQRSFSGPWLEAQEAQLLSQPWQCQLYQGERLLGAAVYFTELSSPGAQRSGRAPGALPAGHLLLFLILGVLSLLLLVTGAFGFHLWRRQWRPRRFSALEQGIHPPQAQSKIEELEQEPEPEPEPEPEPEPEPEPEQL
hLAG-3/hFGL-1, sequence (Q08830 23-312): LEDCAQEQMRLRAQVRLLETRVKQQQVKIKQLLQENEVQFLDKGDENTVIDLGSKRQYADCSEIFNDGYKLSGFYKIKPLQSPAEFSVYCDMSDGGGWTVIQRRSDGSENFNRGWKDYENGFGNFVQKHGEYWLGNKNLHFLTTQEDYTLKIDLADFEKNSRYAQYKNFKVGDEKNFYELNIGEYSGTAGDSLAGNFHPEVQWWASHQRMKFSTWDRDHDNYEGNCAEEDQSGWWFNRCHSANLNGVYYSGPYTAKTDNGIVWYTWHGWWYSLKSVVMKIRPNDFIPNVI

human SIRPα (hSIRPα) = molecular target: T2, human SIRPα (hSIRPα) (Homo sapiens, UniProt P78324); assay: MST binding assay, human SIRPα; conditions: SIRPα-IgV-His, read-out: dissociation constant (KD) for human SIRPα
T2 construct: SIPRα-IgV-His (human: SIA-H5225, mouse: SIA-M52H4, ACRO Biosystems); His; purchased ACRO Biosystems SIA-H5225
T2 sequence (P78324 32-137 limits assumed): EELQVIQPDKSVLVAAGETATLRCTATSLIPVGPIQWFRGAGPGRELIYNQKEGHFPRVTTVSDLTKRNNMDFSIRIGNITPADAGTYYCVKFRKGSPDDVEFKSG
Experimental: as §1

B16-OVA cells = assay: MTT assay, B16-OVA cells; type: cell-based, mouse; conditions: 100 µM; 24 h, 48 h, 72 h
Experimental: MC38 and B16-OVA cells were seeded into 96-well plates at a density of 3,000 cells per well, respectively and allowed to adhere overnight. SMC18 was added to the cells and incubated for 24 h, 48 h and 72 h, respectively. Cell viability was measured by adding MTT (3-(4, 5-dimethyl-2-thiazolyl)-2,5-diphenyl-2-H-tetrazolium bromide, 298–93-1, Sigma) solution and incubating for 4 h. The cells were then lysed by shaking with DMSO. The absorbance values at 490 nm were measured using a multi-mode microplate reader (Molecular Devices, SpectraMax iD5).
Fig S3. The Effect of SMC18 on Tumor Cell Proliferation in vitro. MC38 cells (3000 cells/well) and B16-OVA cells (3000 cells/well) were seeded in flat-bottomed 96-well plates and allowed to adhere overnight. Subsequently, the cells were starved for 8 hours in serum-free medium. SMC18 was diluted in complete culture medium and added to the wells, following which the cells were incubated for 24 h, 48 h, and 72 h. After the designated incubation periods, 20 μL of MTT solution was added to each well. Four hours later, the supernatant was aspirated, and 150 μL of DMSO was added to each well to dissolve the MTT formazan product. The plates were then shaken for 10 minutes, and absorbance was measured at 490 nm using a microplate reader.

murine CD47/SIRPα = molecular target: T3, murine CD47/SIRPα (Mus musculus, UniProt P97797); assay: Cell-based blocking assay, murine CD47/SIRPα; conditions: CHO-K1-mCD47 cells, SIRPα-Fc, flow cytometry; read-out: IC50 for blocking murine CD47/SIRPα interaction
T3 construct: purchased ACRO Biosystems SIA-M5258; host or cells: CHO-K1-mCD47 cells carry the partner (lentiviral transfection)
T3 sequence (P97797 32-373 limits assumed): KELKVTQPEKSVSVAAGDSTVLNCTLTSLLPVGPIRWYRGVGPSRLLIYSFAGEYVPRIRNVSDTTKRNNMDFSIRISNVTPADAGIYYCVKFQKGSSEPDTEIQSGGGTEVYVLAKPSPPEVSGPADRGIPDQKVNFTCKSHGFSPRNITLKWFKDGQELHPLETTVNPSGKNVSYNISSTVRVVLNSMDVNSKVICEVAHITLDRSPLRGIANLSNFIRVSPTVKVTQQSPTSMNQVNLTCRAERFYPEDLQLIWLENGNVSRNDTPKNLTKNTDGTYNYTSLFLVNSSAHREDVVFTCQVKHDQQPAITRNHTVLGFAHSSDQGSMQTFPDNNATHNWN
Experimental: (§2) The CHO-K1 cell line with stable expression of CD47 and PD-1 was constructed previously by our group. SMC18 was serially diluted using PBS 7.2 (containing 1% DMSO) and incubated with 100 ng of SIRPα-Fc protein (human: SIA-H5251, mouse: SIA-M5258, ACRO Biosystems) and 50 ng of PD-L1-Fc protein (human: 10,084-H02H, mouse: 50,010-M02H, Sino Biological) on ice for 30 min. The mixture was then added to the corresponding CHO-K1-CD47 or CHO-K1-PD-1 cells and further incubated on ice for 30 min. Afterward, PE-conjugated anti-human IgG (Fc) antibody (A18272, eBioscience) was added. The mean fluorescence intensity (MFI) of the cells was detected using flow cytometry (BD FACSCalibur) and the blocking efficiency was calculated.

MC38 tumor-bearing mice [2] = assay: MC38 tumor model, SMC18 combined with radiotherapy; type: in vivo, mouse; conditions: one 20 Gy dose local IR + SMC18 2 mg/kg i.p. daily for 14 days
Experimental: For the combined radiotherapy treatment model, mice were randomly grouped into four groups when the tumor volume reached approximately 40 ~ 60 mm^3. Mice were treated with a single dose of 20 Gy of local tumor irradiation (Precision X-Ray, XRad320) and daily intraperitoneal injections of SMC18 (2 mg/kg) or equivalent amount of saline for 14 days. Tumor volume was measured every other day using the formula V = 1/2 × a × b × c, where a, b, and c are the tumor's length, width, and height, respectively.

hTIGIT/hPVR = hTIGIT/hPVR (Homo sapiens, UniProt P15151+Q495A1); assay: Blockade of other immune checkpoint pathways, TIGIT/PVR; type: cell-based; conditions: Fig. S2
hTIGIT/hPVR, sequence (Q495A1 22-244): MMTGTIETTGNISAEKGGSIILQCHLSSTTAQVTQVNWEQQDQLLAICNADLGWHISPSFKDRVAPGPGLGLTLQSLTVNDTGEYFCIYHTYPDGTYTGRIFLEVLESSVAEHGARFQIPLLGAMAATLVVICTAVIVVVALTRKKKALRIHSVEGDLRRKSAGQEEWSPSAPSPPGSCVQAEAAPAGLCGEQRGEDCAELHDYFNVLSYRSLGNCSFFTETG
hTIGIT/hPVR, sequence (P15151 21-417): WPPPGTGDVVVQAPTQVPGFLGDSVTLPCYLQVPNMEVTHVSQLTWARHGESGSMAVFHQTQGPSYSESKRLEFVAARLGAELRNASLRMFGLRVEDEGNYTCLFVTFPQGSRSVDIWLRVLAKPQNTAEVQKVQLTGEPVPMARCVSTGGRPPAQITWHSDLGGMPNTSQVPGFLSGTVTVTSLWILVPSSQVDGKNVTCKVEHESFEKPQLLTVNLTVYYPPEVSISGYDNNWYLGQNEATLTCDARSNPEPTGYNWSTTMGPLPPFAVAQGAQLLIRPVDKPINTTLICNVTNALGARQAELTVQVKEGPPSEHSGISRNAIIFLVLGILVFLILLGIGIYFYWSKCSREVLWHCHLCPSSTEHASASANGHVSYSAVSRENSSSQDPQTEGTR

human PD-L1 (hPD-L1) = molecular target: T4, human PD-L1 (hPD-L1) (Homo sapiens, UniProt Q9NZQ7); assay: MST binding assay, human PD-L1; conditions: PD-L1-IgV-His, read-out: dissociation constant (KD) for human PD-L1
T4 construct: PD-L1-IgV-His (human: 10,084-H08H, mouse: 50,010-M08H, Sino Biological); His; purchased Sino Biological 10,084-H08H
T4 sequence (Q9NZQ7 19-127 limits assumed): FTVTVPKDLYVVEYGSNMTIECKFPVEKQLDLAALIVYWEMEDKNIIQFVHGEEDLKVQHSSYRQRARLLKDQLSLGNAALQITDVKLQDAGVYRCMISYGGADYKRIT
Experimental: as §1

murine PD-1/PD-L1 = molecular target: T5, murine PD-1/PD-L1 (Mus musculus, UniProt Q9EP73); assay: Cell-based blocking assay, murine PD-1/PD-L1; conditions: CHO-K1-mPD-1 cells, PD-L1-Fc, flow cytometry; read-out: IC50 for blocking murine PD-1/PD-L1 interaction
T5 construct: purchased Sino Biological 50,010-M02H; host or cells: CHO-K1-mPD-1 cells carry the partner (lentiviral transfection)
T5 sequence (Q9EP73 19-238 limits assumed): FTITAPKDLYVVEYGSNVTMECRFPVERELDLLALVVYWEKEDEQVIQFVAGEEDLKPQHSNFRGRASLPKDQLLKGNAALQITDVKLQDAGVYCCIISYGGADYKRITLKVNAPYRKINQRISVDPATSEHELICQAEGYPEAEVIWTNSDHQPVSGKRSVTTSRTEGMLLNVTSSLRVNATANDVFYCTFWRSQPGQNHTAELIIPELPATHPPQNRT
Experimental: as §2

Cc1cc(C)cc(NS(=O)(=O)c2ccc3[nH]cc(C(=O)NCCc4ccccc4)c(=O)c3c2)c1 [SMC18]
body weight of tumor-bearing mice (MC38 tumor-bearing mice [1]): without affecting | growth of MC38 tumors (MC38 tumor-bearing mice [1]): effectively delayed | Kd (murine PD-L1 (mPD-L1)): 25 ± 30 nM | inhibitory effect on hLAG-3/hFGL-1 pathway (hLAG-3/hFGL-1): no blocking effect; also recorded: did not impede | Kd (human SIRPα (hSIRPα)): 550 ± 100 nM | toxicity towards B16-OVA cells (MTT) (B16-OVA cells): only mild toxicity | IC50 (murine CD47/SIRPα): 58900 ± 3200 nM | body weight of the mice, combination with radiotherapy (MC38 tumor-bearing mice [2]): without affecting | tumor growth, combination with radiotherapy (MC38 tumor-bearing mice [2]): significantly inhibited | inhibitory effect on hTIGIT/hPVR pathway (hTIGIT/hPVR): no blocking effect; also recorded: did not impede | Kd (human PD-L1 (hPD-L1)): 29 ± 30 nM | IC50 (murine PD-1/PD-L1): 71300 ± 20000 nM
